From patent US9546172B2, “Pyrazolo[3,4-d]pyrimidine and pyrazolo[2,3-d]pyrimidine compounds as kinase inhibitors” (Pharmacyclics LLC, priority 2011, dated 2017)
pIC50: −log10 of the molar value.

Assays:
Assay type in all cases: biochemical
Lck = Lck (Homo sapiens, UniProt P06239); assay: Lck kinase inhibition
Procedure: (§1) Btk kinase activity was determined using a time-resolved fluorescence resonance energy transfer (TR-FRET) methodology. Measurements were performed in a reaction volume of 50 μL using 96-well assay plates. […] The reaction was quenched by the addition of 1.2 equivalents of EDTA (relative to divalent cation) in 25 μL of 1× Lance buffer (Perkin-Elmer). Streptavidin-APC (Perkin-Elmer) and Eu-labeled p-Tyr100 antibody (Perkin-Elmer) in 1× Lance buffer were added in a 25 μL volume to give final concentrations of 100 nM and 2.5 nM, respectively, and the mixture was allowed to incubate for one hour. The TR-FRET signal was measured on a multimode plate reader with an excitation wavelength (λEx) of 330 nm and detection wavelengths (λEm) of 615 and 665 nm. Activity was determined by the ratio of the fluorescence at 665 nm to that at 615 nm. For each compound, enzyme activity was measured at various concentrations of compound. Negative control reactions were performed in the absence of inhibitor in replicates of six, and two no-enzyme controls were used to determine baseline fluorescence levels Inhibition constants, Ki(app), were obtained using the program BatchKi (Kuzmic et al. (2000), Anal. Biochem. 286:45-50). IC50s were obtained according to the equation: IC50={Ki(app)/(1+[ATP]/Km^ATP)}+[E]total/2; For all kinases, [ATP]=Km^ATP, [Btk]total=0.5 nM and [Lck]total=6 nM.

Btk = molecular target: T1, Btk (Homo sapiens, UniProt Q06187); assay: Btk in vitro inhibitory activity (one of Methods A, B, C); settings: determined in one of three in vitro assays (Examples 125-127)
T1 construct: purified from insect cells as a full-length construct containing a N-terminal 6×-His tag; 6xHis (N); host or cells: insect cells (baculovirus Sf21 in Method B)
T1 sequence (Q06187 whole entry): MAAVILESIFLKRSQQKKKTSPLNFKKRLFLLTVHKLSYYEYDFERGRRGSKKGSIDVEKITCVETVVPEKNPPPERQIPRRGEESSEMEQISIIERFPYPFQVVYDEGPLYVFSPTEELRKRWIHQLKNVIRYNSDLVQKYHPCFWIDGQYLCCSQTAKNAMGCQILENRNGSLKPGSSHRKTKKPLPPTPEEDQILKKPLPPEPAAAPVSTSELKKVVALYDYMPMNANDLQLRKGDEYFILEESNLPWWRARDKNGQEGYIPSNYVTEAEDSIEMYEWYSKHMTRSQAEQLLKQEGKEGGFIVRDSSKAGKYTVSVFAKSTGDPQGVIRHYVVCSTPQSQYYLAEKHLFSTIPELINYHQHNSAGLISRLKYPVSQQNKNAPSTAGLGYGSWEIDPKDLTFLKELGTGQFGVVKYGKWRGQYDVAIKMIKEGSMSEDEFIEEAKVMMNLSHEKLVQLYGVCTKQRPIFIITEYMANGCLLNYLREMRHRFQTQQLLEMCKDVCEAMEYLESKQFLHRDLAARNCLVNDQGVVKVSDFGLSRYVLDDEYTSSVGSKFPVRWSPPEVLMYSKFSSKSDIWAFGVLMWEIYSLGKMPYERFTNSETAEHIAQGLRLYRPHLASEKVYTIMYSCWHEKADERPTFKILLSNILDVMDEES
Procedure: The Btk IC50s of compounds disclosed herein was determined in one of the three in vitro assays described in Examples 125-127.
as §1
Kinase activity is measured in vitro using electrophoretic mobility shift assay. The kinase reactions are assembled in a total volume of 25 μL in 384 well plates. […] The reaction is incubated for one hour and is quenched by the addition of 45 μL of termination buffer (100 mM HEPES, pH7.5, 0.01% Triton X-100, 30 mM EDTA). The terminated reactions are analyzed using 12 channel LabChip® 3000 microfluidic detection instrument (Caliper Life Sciences). The enzymatic phosphorylation of the peptide results in a change in net charge, enabling electrophoretic separation of product from substrate peptide. As substrate and product peptides are separated, two peaks of fluorescence are observed. Change in the relative fluorescence intensity of the substrate and product peaks is the parameter measured, reflecting enzyme activity. In the presence of an inhibitor, the ratio between product and substrate is altered: the signal of the product decreases, while the signal of the substrate increases.
Activity in each sample is determined as the product to sum ratio (PSR): P/(S+P), where P is the peak height of the product peptide and S is the peak height of the substrate peptide. For each compound, enzyme activity is measured at various concentrations (12 concentrations of compound spaced by 3× dilution intervals). Negative control samples (0%-inhibition in the absence of inhibitor) and positive control samples (100%-inhibition, in the presence of 20 mM EDTA) are assembled in replicates of four and are used to calculate %-inhibition values for each inhibitor at each concentration. Percent inhibition (Pinh) is determined using following equation: Pinh=(PSR0%−PSRinh)/(PSR0%−PSR100%)*100, where PSRinh is the product sum ratio in the presence of inhibitor, PSR0% is the average product sum ration in the absence of inhibitor and PSR100% is the average product sum ratio in 100%-inhibition control samples;
The IC50 values of inhibitors are determined by 4 parameter sigmoidal dose-response model fitting of the inhibition curves (Pinh versus inhibitor concentration) using XLfit 4 software.
Human Btk kinase (Genbank accession # NP_000052) was purified from insect cells as a full-length construct containing a N-terminal 6×-His tag. Btk kinase activity was determined using a radiometric filter binding assay. Measurements are performed in a low reaction volume 384-well assay plates. […]

EGFR = EGFR (Homo sapiens, UniProt P00533); assay: EGFR kinase inhibition
Chain of EGFR (P00533 25-1210): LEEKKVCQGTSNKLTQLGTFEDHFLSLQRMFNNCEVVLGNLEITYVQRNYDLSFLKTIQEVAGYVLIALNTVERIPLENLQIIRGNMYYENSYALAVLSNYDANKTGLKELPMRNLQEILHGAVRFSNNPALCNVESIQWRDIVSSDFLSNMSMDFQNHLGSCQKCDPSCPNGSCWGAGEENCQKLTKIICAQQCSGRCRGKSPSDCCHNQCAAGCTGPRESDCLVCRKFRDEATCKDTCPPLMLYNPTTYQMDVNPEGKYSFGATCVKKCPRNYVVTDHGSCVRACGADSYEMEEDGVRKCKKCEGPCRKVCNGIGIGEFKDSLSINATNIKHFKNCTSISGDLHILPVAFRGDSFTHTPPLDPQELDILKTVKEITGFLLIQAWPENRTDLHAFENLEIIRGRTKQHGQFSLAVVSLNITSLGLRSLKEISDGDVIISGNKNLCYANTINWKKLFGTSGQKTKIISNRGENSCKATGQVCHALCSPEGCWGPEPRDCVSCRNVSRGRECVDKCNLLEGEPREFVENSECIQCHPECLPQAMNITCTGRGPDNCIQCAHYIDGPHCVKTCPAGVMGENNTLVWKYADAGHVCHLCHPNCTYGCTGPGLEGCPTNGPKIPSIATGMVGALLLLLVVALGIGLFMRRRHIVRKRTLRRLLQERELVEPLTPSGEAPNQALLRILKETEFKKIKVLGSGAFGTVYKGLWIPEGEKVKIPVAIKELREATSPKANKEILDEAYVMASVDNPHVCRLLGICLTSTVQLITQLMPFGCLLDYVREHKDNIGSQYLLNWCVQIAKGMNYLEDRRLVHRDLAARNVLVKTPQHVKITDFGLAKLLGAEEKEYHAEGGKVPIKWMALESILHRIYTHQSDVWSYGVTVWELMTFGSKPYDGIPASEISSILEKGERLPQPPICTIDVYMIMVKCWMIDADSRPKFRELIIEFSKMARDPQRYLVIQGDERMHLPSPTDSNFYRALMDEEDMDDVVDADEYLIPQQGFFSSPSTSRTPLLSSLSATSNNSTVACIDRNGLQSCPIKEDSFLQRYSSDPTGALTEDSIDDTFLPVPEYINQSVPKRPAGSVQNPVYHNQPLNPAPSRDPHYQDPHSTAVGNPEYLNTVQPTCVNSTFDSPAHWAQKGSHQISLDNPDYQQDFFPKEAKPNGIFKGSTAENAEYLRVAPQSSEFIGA

C-src = C-src (Homo sapiens, UniProt P12931); assay: C-src kinase inhibition
Chain of C-src (P12931 whole entry): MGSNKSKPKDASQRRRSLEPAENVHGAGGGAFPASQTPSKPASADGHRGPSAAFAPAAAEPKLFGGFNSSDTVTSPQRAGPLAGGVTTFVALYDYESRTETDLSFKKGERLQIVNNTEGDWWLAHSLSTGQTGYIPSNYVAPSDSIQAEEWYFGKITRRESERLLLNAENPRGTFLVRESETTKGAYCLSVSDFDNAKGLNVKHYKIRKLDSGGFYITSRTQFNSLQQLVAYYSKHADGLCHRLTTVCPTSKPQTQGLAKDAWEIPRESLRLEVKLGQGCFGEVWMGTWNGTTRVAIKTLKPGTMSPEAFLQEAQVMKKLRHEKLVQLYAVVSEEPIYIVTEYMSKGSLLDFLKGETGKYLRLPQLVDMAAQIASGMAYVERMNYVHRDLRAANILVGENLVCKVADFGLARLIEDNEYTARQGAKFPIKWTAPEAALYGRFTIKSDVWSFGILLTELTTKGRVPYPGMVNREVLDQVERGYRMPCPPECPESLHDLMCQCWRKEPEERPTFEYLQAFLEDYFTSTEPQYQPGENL
Procedure: as §1

Lyn = Lyn (Homo sapiens, UniProt P07948); assay: Lyn kinase inhibition
Chain of Lyn (P07948 whole entry): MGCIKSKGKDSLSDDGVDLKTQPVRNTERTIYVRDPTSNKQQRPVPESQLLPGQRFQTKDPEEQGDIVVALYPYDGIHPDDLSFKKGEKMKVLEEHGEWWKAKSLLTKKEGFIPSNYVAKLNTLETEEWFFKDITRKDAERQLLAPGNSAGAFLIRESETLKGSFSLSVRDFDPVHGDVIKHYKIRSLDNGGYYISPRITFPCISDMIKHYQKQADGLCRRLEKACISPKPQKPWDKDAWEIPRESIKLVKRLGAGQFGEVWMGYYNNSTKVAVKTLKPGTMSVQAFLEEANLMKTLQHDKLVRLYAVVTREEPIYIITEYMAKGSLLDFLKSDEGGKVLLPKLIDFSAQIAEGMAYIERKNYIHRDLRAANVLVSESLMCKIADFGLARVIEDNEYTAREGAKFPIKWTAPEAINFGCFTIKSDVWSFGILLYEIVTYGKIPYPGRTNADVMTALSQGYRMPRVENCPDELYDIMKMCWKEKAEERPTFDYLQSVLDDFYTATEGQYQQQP

BLK = BLK (Homo sapiens, UniProt P51451); assay: BLK kinase inhibition
Chain of BLK (P51451 whole entry): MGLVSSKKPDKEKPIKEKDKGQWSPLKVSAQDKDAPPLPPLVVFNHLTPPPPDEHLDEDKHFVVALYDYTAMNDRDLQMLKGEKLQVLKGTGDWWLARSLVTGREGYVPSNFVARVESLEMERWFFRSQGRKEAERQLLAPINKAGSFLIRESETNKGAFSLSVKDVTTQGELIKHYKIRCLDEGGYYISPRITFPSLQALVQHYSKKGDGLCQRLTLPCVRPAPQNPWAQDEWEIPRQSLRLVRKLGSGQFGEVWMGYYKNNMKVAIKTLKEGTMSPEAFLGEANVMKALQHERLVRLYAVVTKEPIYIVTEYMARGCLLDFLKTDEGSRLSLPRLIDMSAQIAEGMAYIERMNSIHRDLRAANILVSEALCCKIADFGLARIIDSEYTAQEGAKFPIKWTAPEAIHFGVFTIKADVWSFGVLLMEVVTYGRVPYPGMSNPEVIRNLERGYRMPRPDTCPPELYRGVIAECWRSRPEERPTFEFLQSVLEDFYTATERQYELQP
Procedure: as §1

Tec = molecular target: T2, Tec (Homo sapiens, UniProt P42680); assay: Tec kinase inhibition
T2 sequence (P42680 1-631): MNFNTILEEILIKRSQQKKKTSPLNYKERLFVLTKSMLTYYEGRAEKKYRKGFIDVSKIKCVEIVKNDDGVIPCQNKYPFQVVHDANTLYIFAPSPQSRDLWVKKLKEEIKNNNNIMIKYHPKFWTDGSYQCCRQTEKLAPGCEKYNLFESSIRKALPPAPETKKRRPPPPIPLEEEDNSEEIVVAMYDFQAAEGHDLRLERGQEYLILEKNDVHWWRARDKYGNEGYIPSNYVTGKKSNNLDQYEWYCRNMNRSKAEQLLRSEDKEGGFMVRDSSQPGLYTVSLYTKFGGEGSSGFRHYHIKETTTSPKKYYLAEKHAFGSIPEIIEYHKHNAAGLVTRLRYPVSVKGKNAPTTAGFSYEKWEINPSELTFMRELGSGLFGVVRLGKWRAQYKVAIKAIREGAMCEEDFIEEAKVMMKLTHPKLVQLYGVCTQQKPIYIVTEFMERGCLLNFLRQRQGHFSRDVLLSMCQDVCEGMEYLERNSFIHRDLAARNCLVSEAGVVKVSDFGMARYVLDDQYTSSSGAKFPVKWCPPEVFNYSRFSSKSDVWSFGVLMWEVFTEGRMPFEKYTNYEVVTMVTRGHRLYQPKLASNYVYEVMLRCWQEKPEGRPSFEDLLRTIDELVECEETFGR
Procedure: as §1

CSK = CSK (Homo sapiens, UniProt P41240); assay: CSK kinase inhibition
Chain of CSK (P41240 whole entry): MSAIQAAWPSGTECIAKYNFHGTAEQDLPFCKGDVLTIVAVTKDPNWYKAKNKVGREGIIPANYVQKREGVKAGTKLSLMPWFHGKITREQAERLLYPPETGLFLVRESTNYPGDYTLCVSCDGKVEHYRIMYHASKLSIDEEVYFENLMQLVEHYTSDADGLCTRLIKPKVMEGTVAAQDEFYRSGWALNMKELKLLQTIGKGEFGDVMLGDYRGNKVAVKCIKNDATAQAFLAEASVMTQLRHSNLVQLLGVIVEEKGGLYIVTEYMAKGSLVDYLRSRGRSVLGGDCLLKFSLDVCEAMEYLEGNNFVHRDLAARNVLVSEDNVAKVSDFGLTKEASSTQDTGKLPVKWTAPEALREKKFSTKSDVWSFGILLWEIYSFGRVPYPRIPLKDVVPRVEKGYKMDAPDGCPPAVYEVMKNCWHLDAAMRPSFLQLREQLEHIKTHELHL

BMX = molecular target: T3, BMX (Homo sapiens, UniProt P51813); assay: BMX kinase inhibition
T3 sequence (P51813 1-675): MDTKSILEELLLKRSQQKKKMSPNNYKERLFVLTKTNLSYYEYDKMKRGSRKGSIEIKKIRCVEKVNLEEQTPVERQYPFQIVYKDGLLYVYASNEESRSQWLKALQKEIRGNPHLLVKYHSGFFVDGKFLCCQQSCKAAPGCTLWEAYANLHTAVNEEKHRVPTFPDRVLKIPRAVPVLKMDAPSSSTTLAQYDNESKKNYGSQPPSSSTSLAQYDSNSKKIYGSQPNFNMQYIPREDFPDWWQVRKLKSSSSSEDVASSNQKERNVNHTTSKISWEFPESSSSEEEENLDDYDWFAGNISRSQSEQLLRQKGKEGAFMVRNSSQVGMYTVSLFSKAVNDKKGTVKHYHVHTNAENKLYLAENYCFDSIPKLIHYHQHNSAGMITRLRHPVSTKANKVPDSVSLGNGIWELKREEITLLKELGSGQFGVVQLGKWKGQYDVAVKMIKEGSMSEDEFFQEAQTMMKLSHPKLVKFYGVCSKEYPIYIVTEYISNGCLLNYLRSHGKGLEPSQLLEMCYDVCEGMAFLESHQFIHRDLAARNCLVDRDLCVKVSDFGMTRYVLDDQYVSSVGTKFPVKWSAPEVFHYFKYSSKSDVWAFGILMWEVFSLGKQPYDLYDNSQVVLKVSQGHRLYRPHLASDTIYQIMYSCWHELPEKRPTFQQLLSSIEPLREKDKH

Chain of Lck (P06239 whole entry): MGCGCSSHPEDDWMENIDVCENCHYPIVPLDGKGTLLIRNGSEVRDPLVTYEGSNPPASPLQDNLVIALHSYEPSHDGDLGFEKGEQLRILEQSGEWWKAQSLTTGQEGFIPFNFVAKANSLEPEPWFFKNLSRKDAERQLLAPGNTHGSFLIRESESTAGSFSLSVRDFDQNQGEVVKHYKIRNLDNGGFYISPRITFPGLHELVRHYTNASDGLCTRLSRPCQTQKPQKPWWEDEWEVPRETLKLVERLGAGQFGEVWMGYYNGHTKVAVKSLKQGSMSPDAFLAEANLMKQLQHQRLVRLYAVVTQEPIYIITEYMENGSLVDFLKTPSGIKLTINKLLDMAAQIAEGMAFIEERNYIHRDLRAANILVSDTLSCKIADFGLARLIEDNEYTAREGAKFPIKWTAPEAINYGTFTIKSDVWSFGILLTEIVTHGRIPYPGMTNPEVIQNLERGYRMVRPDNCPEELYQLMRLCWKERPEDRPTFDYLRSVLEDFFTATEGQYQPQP

Compound: COc1cc(-c2nn(-c3ccc(N(C)C(=O)/C=C/CN(C)C)cn3)c3ncnc(N)c23)ccc1C [Example 29, (E)-N-(6-(4-amino-3-(3-methoxy-4-methylphenyl)-1H-pyrazolo[3,4-d]pyrimidin-1-yl)pyridin-3-yl)-4-(dimethylamino)-N-methylbut-2-enamide]
- pIC50 (Lck): 6.00 to 7.00
- pIC50 (Btk): > 7.00
- pIC50 (EGFR): < 6.00
- pIC50 (C-src): > 7.00
- pIC50 (Lyn): 6.00 to 7.00

Compound: CN(C)C/C=C/C(=O)N(C)c1ccc(-n2nc(-c3ccc(Cl)cc3)c3c(N)ncnc32)nc1 [Example 28, (E)-N-(6-(4-amino-3-(4-chlorophenyl)-1H-pyrazolo[3,4-d]pyrimidin-1-yl)pyridin-3-yl)-4-(dimethylamino)-N-methylbut-2-enamide]
- pIC50 (Lck): 6.00 to 7.00
- pIC50 (Btk): > 7.00
- pIC50 (EGFR): < 6.00
- pIC50 (C-src): 6.00 to 7.00
- pIC50 (Lyn): < 6.00

Compound: CN(C/C=C/C(=O)Nc1cccc(-n2nc(-c3ccc(Cl)cc3)c3c(N)ncnc32)c1)C1CC1 [Example 26, (E)-N-(3-(4-amino-3-(4-chlorophenyl)-1H-pyrazolo[3,4-d]pyrimidin-1-yl)phenyl)-4-(cyclopropyl(methyl)amino)but-2-enamide]
- pIC50 (Lck): 6.00 to 7.00
- pIC50 (Btk): > 7.00
- pIC50 (C-src): 6.00 to 7.00
- pIC50 (Lyn): 6.00 to 7.00

Compound: C=CC(=O)N(C)c1cccc(-n2nc(-c3ccc(Cl)cc3)c3c(N)ncnc32)c1 [Example 22, N-(3-(4-amino-3-(4-chlorophenyl)-1H-pyrazolo[3,4-d]pyrimidin-1-yl)phenyl)-N-methylacrylamide]
- pIC50 (Lck): < 6.00
- pIC50 (Btk): > 7.00
- pIC50 (EGFR): > 7.00
- pIC50 (C-src): 6.00 to 7.00
- pIC50 (Lyn): < 6.00

Compound: CN(C)C/C=C/C(=O)Nc1ccc(-n2nc(-c3ccc(Cl)cc3)c3c(N)ncnc32)cc1 [Example 17, (E)-N-(4-(4-amino-3-(4-chlorophenyl)-1H-pyrazolo[3,4-d]pyrimidin-1-yl)phenyl)-4-(dimethylamino)but-2-enamide]
- pIC50 (BLK): > 7.00
- pIC50 (Tec): > 7.00
- pIC50 (Lck): > 7.00
- pIC50 (CSK): 6.00 to 7.00
- pIC50 (Btk): > 7.00
- pIC50 (EGFR): > 7.00
- pIC50 (BMX): > 7.00
- pIC50 (C-src): > 7.00
- pIC50 (Lyn): > 7.00

Compound: C=CC(=O)N(C)c1ccc(-n2nc(-c3ccc(C)c(OC)c3)c3c(N)ncnc32)cc1 [Example 18, N-(4-(4-amino-3-(3-methoxy-4-methylphenyl)-1H-pyrazolo[3,4-d]pyrimidin-1-yl)phenyl)-N-methylacrylamide]
- pIC50 (Lck): > 7.00
- pIC50 (Btk): > 7.00
- pIC50 (EGFR): > 7.00
- pIC50 (C-src): > 7.00
- pIC50 (Lyn): 6.00 to 7.00

Compound: C=CC(=O)Nc1ccc(-n2nc(-c3ccc(Cl)c(Cl)c3)c3c(N)ncnc32)cc1 [Example 20, N-(4-(4-amino-3-(3,4-dichlorophenyl)-1H-pyrazolo[3,4-d]pyrimidin-1-yl)phenyl)acrylamide]
- pIC50 (Lck): 6.00 to 7.00
- pIC50 (Btk): > 7.00
- pIC50 (C-src): > 7.00
- pIC50 (Lyn): 6.00 to 7.00

Compound: C=CC(=O)Nc1ccc(-n2nc(-c3ccc(Cl)cc3)c3c(N)ncnc32)cc1 [Example 19, N-(4-(4-amino-3-(4-chlorophenyl)-1H-pyrazolo[3,4-d]pyrimidin-1-yl)phenyl)acrylamide]
- pIC50 (Lck): > 7.00
- pIC50 (Btk): > 7.00
- pIC50 (EGFR): > 7.00
- pIC50 (C-src): > 7.00
- pIC50 (Lyn): > 7.00

Compound: COc1cc(-c2nn(-c3ccc(N(C)C(=O)/C=C/CN(C)C)cc3)c3ncnc(N)c23)ccc1C [Example 15, (E)-N-(4-(4-amino-3-(3-methoxy-4-methylphenyl)-1H-pyrazolo[3,4-d]pyrimidin-1-yl)phenyl)-4-(dimethylamino)-N-methylbut-2-enamide]
- pIC50 (Lck): > 7.00
- pIC50 (Btk): > 7.00
- pIC50 (EGFR): 6.00 to 7.00
- pIC50 (C-src): > 7.00
- pIC50 (Lyn): > 7.00

Compound: COc1cc(-c2nn(-c3ccc(NC(=O)/C=C/CN(C)C)cc3)c3ncnc(N)c23)ccc1C [Example 16, (E)-N-(4-(4-amino-3-(3-methoxy-4-methylphenyl)-1H-pyrazolo[3,4-d]pyrimidin-1-yl)phenyl)-4-(dimethylamino)but-2-enamide]
- pIC50 (BLK): > 7.00
- pIC50 (Tec): > 7.00
- pIC50 (Lck): > 7.00
- pIC50 (CSK): > 7.00
- pIC50 (Btk): > 7.00
- pIC50 (EGFR): > 7.00
- pIC50 (BMX): > 7.00
- pIC50 (C-src): > 7.00
- pIC50 (Lyn): > 7.00

Compound: CN(C(=O)/C=C/CN(C)C1CC1)c1cccc(-n2nc(-c3ccc(Cl)cc3)c3c(N)ncnc32)c1 [Example 25, (E)-N-(3-(4-amino-3-(4-chlorophenyl)-1H-pyrazolo[3,4-d]pyrimidin-1-yl)phenyl)-4-(cyclopropyl(methyl)amino)-N-methylbut-2-enamide]
- pIC50 (BLK): 6.00 to 7.00
- pIC50 (Tec): > 7.00
- pIC50 (Lck): < 6.00
- pIC50 (CSK): < 6.00
- pIC50 (Btk): > 7.00
- pIC50 (EGFR): > 7.00
- pIC50 (BMX): > 7.00
- pIC50 (C-src): 6.00 to 7.00
- pIC50 (Lyn): < 6.00
